SMILES strings stand for the structures.

In this assay the target is T1, human recombinant adrenergic α2A receptor (Homo sapiens, UniProt P08913).
T1 construct: expressed in transfected cells; host or cells: insect Sf9 cells
T1 sequence (P08913 1-465): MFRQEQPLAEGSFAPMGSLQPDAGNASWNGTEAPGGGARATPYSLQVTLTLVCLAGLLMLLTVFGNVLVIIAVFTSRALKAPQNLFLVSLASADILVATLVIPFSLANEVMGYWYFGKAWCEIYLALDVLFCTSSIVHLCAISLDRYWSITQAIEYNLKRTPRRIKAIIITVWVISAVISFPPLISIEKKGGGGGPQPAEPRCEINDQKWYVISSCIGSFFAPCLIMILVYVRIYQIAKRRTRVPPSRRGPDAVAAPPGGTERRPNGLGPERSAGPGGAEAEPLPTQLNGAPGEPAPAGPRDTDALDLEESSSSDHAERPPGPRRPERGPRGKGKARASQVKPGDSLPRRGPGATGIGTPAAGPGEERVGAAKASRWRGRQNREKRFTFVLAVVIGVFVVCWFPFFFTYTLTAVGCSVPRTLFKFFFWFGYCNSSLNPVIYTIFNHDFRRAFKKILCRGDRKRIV
The assay can be described thus: Adrenergic α2A radioligand binding assay ([3H]MK-912). Conditions: 1 nM [3H]MK-912, read-out: Percent Inhibition of ligand binding, Adrenergic (1 μM) α2A. How it is done: To evaluate in radioligand binding assays the activity of compounds of the invention, human recombinant adrenergic α2A receptor expressed in insect Sf9 cells (Uhlen S et al. J. Pharmacol. Exp. Ther. 271:1558, 1994) in a modified Tris-HCl buffer (50 mM Tris-HCl, pH 7.4, 12.5 mM MgCl2, 2 mM EDTA) was used. Compounds of invention were incubated with 1 nM [^3H]MK-912 for 60 min at 25° C. MK912 is (2S-trans)-1,3,4,5′,6,6′,7,12b-octahydro-1′,3′-dimethyl-spiro[2H-benzofuro[2,3-a]quinolizine-2,4′(1′H)-pyrimidin]-2′(3′H)-one hydrochloride Non-specific binding was estimated in the presence of 10 μM WB-4101 (2-(2,6-dimethoxyphenoxyethyl) aminomethyl-1,4-benzodioxane hydrochloride). Receptor proteins were filtered and washed, the filters were then counted to determine [^3H]MK-912 specifically bound. Compounds were screened at 1 μM or lower, using 1% DMSO as vehicle. Biochemical assay results are presented as the percent inhibition of specific binding in Table 3.
Broadly, the inhibition is how much of the control response was suppressed. For the compound `CNC(=O)CC(Cn1c2c(c3cc(C)ccc31)CN(C)CC2)c1ccc(F)cc1` (stereo not shown) [Compound 8, 4-(2,8-dimethyl-3,4-dihydro-1H-pyrido[4,3-b]indol-5(2H)-yl)-3-(4-fluorophenyl)-N-methylbutanamide], the inhibition at 1 µM was found to be 63%.

`Cc1ccc2c(c1)c1c(n2CC2(c3ccccc3)OCCO2)CCN(C)C1` [Compound 2, 2,8-dimethyl-5-((2-phenyl-1,3-dioxolan-2-yl)methyl)-2,3,4,5-tetrahydro-1H-pyrido[4,3-b]indole]: the inhibition at 1 µM turned out to be 91%.

As to `Cc1ccc2c(c1)c1c(n2CC2(c3ccc(F)cc3)OCCO2)CCN(C)C1` [Compound 3, 5-((2-(4-fluorophenyl)-1,3-dioxolan-2-yl)methyl)-2,8-dimethyl-2,3,4,5-tetrahydro-1H-pyrido[4,3-b]indole], the inhibition at 1 µM was 92%.

With `CN1CCc2c(c3cc(Cl)ccc3n2CC2(c3ccc(Cl)cc3)OCCO2)C1` [Compound 5, 8-chloro-5-((2-(4-chlorophenyl)-1,3-dioxolan-2-yl)methyl)-2-methyl-2,3,4,5-tetrahydro-1H-pyrido[4,3-b]indole], the inhibition at 1 µM was found to be 95%.

As to `Cc1ccc2c(c1)c1c(n2CC(CC(=O)O)c2ccc(F)cc2)CCN(C)C1` (stereo not shown) [Compound 7, 4-(2,8-dimethyl-3,4-dihydro-1H-pyrido[4,3-b]indol-5(2H)-yl)-3-(4-fluorophenyl)butanoic acid], the inhibition at 1 µM was 9%.

On to `CN1CCc2c(c3cc(Cl)ccc3n2CC2(c3ccc(F)cc3)OCCO2)C1` [Compound 4, 8-chloro-5-((2-(4-fluorophenyl)-1,3-dioxolan-2-yl)methyl)-2-methyl-2,3,4,5-tetrahydro-1H-pyrido[4,3-b]indole], for which the inhibition at 1 µM was 95%.

Take `CCOC(=O)CC(Cn1c2c(c3cc(C)ccc31)CN(C)CC2)c1ccc(F)cc1` (stereo not shown) [Compound 6, ethyl 4-(2,8-dimethyl-3,4-dihydro-1H-pyrido[4,3-b]indol-5(2H)-yl)-3-(4-fluorophenyl)butanoate]: the inhibition at 1 µM was found to be 95%.
